Assay results published in US20250206777A1, “COMPOUND - DIAGNOSTIC MARKER FOR INTESTINAL CANCER, METHOD FOR DETECTING ENZYMATIC ACTIVITY, METHOD FOR DIAGNOSIS OF INTESTINAL CANCER, KIT COMPRISING THE COMPOUND, USES OF THE COMPOUND AND METHOD FOR THE TREATMENT OF INTESTINAL CANCER” (URTESTE S.A., priority 2022, published 2025).
Where “and” joins values, the source holds several entries; their conditions need not be identical. Equal values may be shown once. *1 amine or outer side, *2 acyl side, *3 side chain or, on linkers, in order; H or OH if unused. Where no end group is shown, it is not given here. [ ]: non-standard residue; d: D form. Benzoyl(5-NH,2-NO2) = O=C(c1cc(N[*:1])ccc1[N+](=O)[O-])[*:2]; 2Abz = Nc1ccccc1C(=O)O

Tests used:
[1] = tested on: proteolytic enzymes in urine from a subject suffering from intestinal cancer; assay: Hydrolysis of the chromogenic substrate in urine from subjects with intestinal cancer (absorbance at 405 nm); assay type: biochemical, human; details: for absorbance: 405 nm, 60 minutes, 37° C., pH 8.0, triplicate
Procedure: The activity of the novel compounds according to the invention was studied in a group of 20 subjects diagnosed with intestinal cancer using the representative compound according to the invention. […] The remaining compounds according to the invention are characterized by the analogous mechanism of action. For this purpose, the representative compound according to the invention, ABZ^1-Asn^2-Phe^3-Ser^4-Pro^5-ANB^6—NH2, was dissolved in dimethyl sulfoxide (at a concentration of 0.5 mg/mL) and then 50 μL of the solution was mixed with 120 μL of a buffer (200 mM Tris-HCl, pH 8.0) and 80 μL of urine from a subject suffering from intestinal cancer. The measurement was performed on a 96-well plate designed for measuring absorbance and each sample was analysed in triplicate at the temperature of 37° C. The duration of the measurement was 60 minutes. During the measurement, the wavelength characteristic for the chromophore (ANB-NH2) being released was monitored at the wavelength 405 nm (range 380-430 nm).

[2] = tested on: urine samples taken from healthy persons; assay: Hydrolysis of the chromogenic substrate in urine from healthy subjects (absorbance at 405 nm); assay type: biochemical, human; details: for absorbance: healthy subject, 405 nm, 60 minutes, 37° C., pH 8.0, triplicate
[3] = tested on: urine taken from a person diagnosed with intestinal cancer; assay: RP HPLC analysis of substrate cleavage in urine from a person with intestinal cancer; assay type: biochemical, human; details: randomly selected urine sample from a person diagnosed with intestinal cancer
[4] = tested on: at least one enzyme of the studied material; assay: Dependence of substrate hydrolysis on reaction pH; assay type: biochemical; details: FIG. 4
Procedure: Furthermore, measurements concerning the dependence of the proteolytic activity of the representative compound according to the invention on the reaction pH were performed.

cleavage of the substrate ([1]; all samples 1-20 from persons suffering from intestinal cancer): underwent cleavage | absorbance ([1]; urine sample 3, intestinal cancer): 0.035 and 0.034 and 0.036 | absorbance ([1]; urine sample 4, intestinal cancer): 0.0314 and 0.0313 and 0.0385 | absorbance ([1]; urine sample 7, intestinal cancer): 0.041 and 0.039 and 0.04 | absorbance ([1]; urine sample 8, intestinal cancer): 0.0257 and 0.0219 and 0.0258 | absorbance ([1]; urine sample 9, intestinal cancer): 0.056 and 0.064 and 0.06 | absorbance ([1]; urine sample 10, intestinal cancer): 0.025 and 0.024 and 0.026 | absorbance ([1]; urine sample 11, intestinal cancer): 0.015 and 0.016 and 0.027 | absorbance ([1]; urine sample 12, intestinal cancer): 0.0916 and 0.0979 and 0.101 | absorbance ([1]; urine sample 13, intestinal cancer): 0.046 and 0.0337 and 0.0461 | absorbance ([1]; urine sample 14, intestinal cancer): 0.025 and 0.018 and 0.0182 | absorbance ([1]; urine sample 15, intestinal cancer): 0.031 and 0.028 and 0.02 | absorbance ([1]; urine sample 16, intestinal cancer): 0.0183 and 0.0293 and 0.0246 | absorbance ([1]; urine sample 17, intestinal cancer): 0.073 and 0.07 and 0.046 | absorbance ([1]; urine sample 18, intestinal cancer): 0.016 and 0.0186 and 0.0202 | absorbance ([1]; urine sample 19, intestinal cancer): 0.036 and 0.04 and 0.038 | dependence of the proteolytic activity on the reaction pH [4]: maximum activity at alkaline pH
Substance: ABZ-Asn-Phe-Ser-Pro-ANB-NH2 ([2Abz]NFSP-{Benzoyl(5-NH,2-NO2)-NH2}) [chromogenic/fluorogenic peptide substrate; ABZ is 2-aminobenzoic acid, ANB-NH2 is amide of 5-amino-2-nitrobenzoic acid]
absorbance ([2]; urine sample 1Z): 0.00000 | absorbance ([2]; urine sample 2Z): 0.00000 | absorbance ([2]; urine sample 3Z): 0.00000 | absorbance ([2]; urine sample 4Z): 0.00000 | absorbance ([2]; urine sample 5Z): 0.00000 | absorbance ([2]; urine sample 6Z): 0.00000 | absorbance ([2]; urine sample 7Z): 0.00000 | absorbance ([2]; urine sample 8Z): 0.00000 | absorbance ([2]; urine sample 9Z): 0.00000 | absorbance ([2]; urine sample 10Z): 0.00000 | absorbance ([2]; urine sample 11Z): 0.00000 | absorbance ([2]; urine sample 12Z): 0.00000 | absorbance ([2]; urine sample 13Z): 0.00000 | absorbance ([2]; urine sample 14Z): 0.00000 | absorbance ([2]; urine sample 15Z): 0.00000 | absorbance ([2]; urine sample 16Z): 0.00000 | absorbance ([2]; urine sample 17Z): 0.00000 | absorbance ([2]; urine sample 18Z): 0.00000 | absorbance ([2]; urine sample 19Z): 0.00000 | absorbance ([2]; urine sample 20Z): 0.00000 | increase in absorbance / hydrolysis of the tested compound ([2]; urine samples from healthy persons 1Z to 20Z): does not lead to an increase in absorbance | cleavage products by RP HPLC [3]: cleaves into the peptide fragment ABZ-Asn-Phe-Ser-Pro-OH and the chromophore group of the compound (ANB-NH2)
